The results in this text go back to patent publication US20020051811A1, “Method and composition for masking mineral taste” (priority 1999, published 2002).

Marks after values point to notes of the source that are not given here. Residues, ends and D or L forms follow the SMILES beside them.

What all share (assay type): in vivo
Test [1] can be described thus: AK added at low levels to solutions containing KCl, perceived bitter aftertaste. Conditions: 1 to 5 mg/100 ml. As for the experimental part:
The level of AK used was 1 to 5 mg/100 ml, which is equivalent in sweetness contribution to between 0.2% and 1% sucrose. This characteristic is specific to AK, and is not noted when […].

Test [2] is described as follows: Expert panel evaluation of taste modifiers on taste of KCl solutions. Conditions: 1.26% KCl, score 0-8. As for the experimental part:
Additional testing was conducted, comparing the absence of taste modifiers with the three taste modifiers of the invention, both separately, and in combinations (AK and glycyrrhizin) (AK and tannic acid) (glycyrrhizin and tannic acid). […] In this study, again, 1.26% KCl was prepared, and used as the test medium for all experiments. The aqueous solution was evaluation by an expert panel for each of the taste attributes. The panel consisted of eight individuals who were screened for their taste acuity and trained in the use of the score sheet. The score sheet employed by the panel appears as Table III hereto.

The nature of test [3]: Effect of glycyrrhizin on potassium-containing beverages (taste scores). Conditions: for effect on aftertaste of KCl: 20-40 mg/100 cc, beverage containing 2.52% KCl by weight; for Bitter / Metallic / Salt: 2.52% KCl beverage, scale 0 to 8. From the text: The effect of glycyrrhizin on potassium-containing beverages was studied.
Test [4] is described as follows: Effect of tannic acid on potassium-containing beverages (taste scores). Particulars: for Aftertaste / Bitter / Salt: 1.26% KCl beverage, scale 0 to 8. From the text:
The effect of tannic acid on potassium-containing beverages was studied.

`CC1=CC(=O)NS(=O)(=O)O1` [Acesulfame-K, acesulfame potassium]: the “effect on perceived bitter aftertaste of KCl solutions” value (shortened to “effect on perceived bitter aftertaste”) in test [1] is “reduced the perceived bitter aftertaste”. For the same molecule, in test [2] (modifier 2.5 mg/100 cc), the Bitter is reported as 3.0*, the Other is 2.8*, the Salt stood at 2.8 and the Sour is given as 0.0. Also, the Sweet in test [2] (modifier 2.5 mg/100 cc) is 0.0. Also, in test [2] (modifier 5.0 mg/100 cc), the Bitter is listed as 2.3*, the Other was 2.2*, the Salt is on record as 2.3 and the Sour came out at 0.0. Further, the Sweet in test [2] (modifier 5.0 mg/100 cc) stood at 0.0. In addition, in test [2] (modifier 7.5 mg/100 cc), the Bitter is 1.8*, the Other is listed as 0.5*, the Salt is listed as 1.5* and the Sour is reported as 0.0. Further, the Sweet in test [2] (modifier 7.5 mg/100 cc) came to 1.3.
Consider `COC(=O)[C@H](Cc1ccccc1)NC(=O)[C@@H](N)CC(=O)O` [aspartame] (HELM PEPTIDE1{D.F.[CO[*:1]]}$$$$V2.0), for which the “effect on perceived bitter aftertaste” value in test [1] is recorded as “not noted”.
Turning to `CC1(C)[C@@H](O[C@H]2O[C@H](C(=O)O)[C@@H](O)[C@H](O)[C@H]2O[C@@H]2O[C@H](C(=O)O)[C@@H](O)[C@H](O)[C@H]2O)CC[C@]2(C)[C@H]3C(=O)C=C4[C@@H]5C[C@@](C)(C(=O)O)CC[C@]5(C)CC[C@@]4(C)[C@]3(C)CC[C@@H]12` [glycyrrhizin], the “effect on aftertaste of KCl” value in test [3] is recorded as “effective in reducing the aftertaste of KCl”. The “effect on aftertaste of KCl” value in test [3] (listed as Glycyrrhizin) is “effective in reducing the bitter and metallic aftertaste of KCl”. Further, in test [3] (+20 mg/100 cc glycyrrhizin), the Bitter was 2.5, the Metallic stood at 2.0 and the Salt was determined as 2.5. For the same molecule, in test [3] (+40 mg/100 cc glycyrrhizin), the Bitter is given as 2.5, the Metallic was 2.0 and the Salt was 2.0. In addition, in test [2] (modifier 5.0 mg/100 cc), the Bitter is 2.0*, the Other is on record as 1.0*, the Salt stood at 3.5 and the Sour was 0.0. The Sweet in test [2] (modifier 5.0 mg/100 cc) was 0.0. For the same molecule, in test [2] (modifier 10.0 mg/100 cc), the Bitter is recorded as 3.3*, the Other is listed as 2.0*, the Salt was 2.3 and the Sour came to 0.0. Moreover, the Sweet in test [2] (modifier 10.0 mg/100 cc) was found to be 0.0. In addition, in test [2] (modifier 20.0 mg/100 cc), the Bitter is recorded as 2.3*, the Other was 2.0*, the Salt worked out at 2.0 and the Sour was found to be 0.0. Besides, the Sweet in test [2] (modifier 20.0 mg/100 cc) was found to be 0.5.
`O=C1NS(=O)(=O)c2ccccc21` [saccharin]: the “effect on perceived bitter aftertaste” value in test [1] was “not noted”.
For the molecule `O=C(OC[C@H]1O[C@@H](OC(=O)c2cc(O)c(O)c(OC(=O)c3cc(O)c(O)c(O)c3)c2)[C@H](OC(=O)c2cc(O)c(O)c(OC(=O)c3cc(O)c(O)c(O)c3)c2)[C@@H](OC(=O)c2cc(O)c(O)c(OC(=O)c3cc(O)c(O)c(O)c3)c2)[C@@H]1OC(=O)c1cc(O)c(O)c(OC(=O)c2cc(O)c(O)c(O)c2)c1)c1cc(O)c(O)c(OC(=O)c2cc(O)c(O)c(O)c2)c1` [tannic acid], the Aftertaste in test [4] (+5 mg/100 cc tannic acid), in test [4] (+10 mg/100 cc tannic acid) and in test [4] (+50 mg/100 cc tannic acid) was 1.0 throughout. The Bitter is listed as 1.0 in test [4] (+5 mg/100 cc tannic acid); 1.0 in test [4] (+10 mg/100 cc tannic acid); 2.5 in test [4] (+50 mg/100 cc tannic acid); 3.0* in test [2] (modifier 1.0 mg/100 cc); 2.0* in test [2] (modifier 5.0 mg/100 cc); 2.0* in test [2] (modifier 10.0 mg/100 cc). The Salt amounted to 1.5 in test [4] (+5 mg/100 cc tannic acid); 1.0 in test [4] (+10 mg/100 cc tannic acid); 1.5 in test [4] (+50 mg/100 cc tannic acid); 3.3 in test [2] (modifier 1.0 mg/100 cc); 3.8 in test [2] (modifier 5.0 mg/100 cc); 2.0 in test [2] (modifier 10.0 mg/100 cc). Also, the “effect on bitter aftertaste and salty taste” value in test [4] (beverage containing 1.26% KCl) was “reduces the level of bitter aftertaste without increasing the salty taste”. The “effect on aftertaste of KCl” value in test [4] (levels as low as 5 mg/100 cc, beverage containing 1.26% KCl by weight) was “effective in reducing and eliminating the aftertaste of KCl”. For the same molecule, the Other in test [2] (modifier 1.0 mg/100 cc) was 3.3*; in test [2] (modifier 5.0 mg/100 cc), 3.0*; in test [2] (modifier 10.0 mg/100 cc) it was 2.0*. The Sour in test [2] (modifier 1.0 mg/100 cc), in test [2] (modifier 5.0 mg/100 cc) and in test [2] (modifier 10.0 mg/100 cc) was 0.0 throughout. The Sweet in test [2] (modifier 1.0 mg/100 cc), in test [2] (modifier 5.0 mg/100 cc) and in test [2] (modifier 10.0 mg/100 cc) was 0.0 in each case.
